From US8268858B2, “Compounds and methods for kinase modulation, and indications therefor” (Plexxikon Inc., priority 2006, dated 2012)

Columns and labels:
Type in all cases: biochemical
[1] = target: Kdr (Homo sapiens, UniProt P35968); experiment: Kinase activity assay, Kdr; details: under the test conditions employed; read-out: activity toward kinase Kdr, IC50
Procedure: (§1) The effect of potential modulators of kinase activity of c-kit and other kinases can be measured in a variety of different assays known in the art, e.g., biochemical assays, cell-based assays, and in vivo testing (e.g. model system testing). Such in vitro and/or in vivo assays and tests can be used in the present invention. As an exemplary kinase assay, the kinase activity of c-kit or Fms is measured in AlphaScreening (Packard BioScience). Assays for the activity of various kinases are described, for example, in U.S. patent application Ser. No. 11/473,347 (see also, PCT publication WO2007002433), the disclosure of which is hereby incorporated by reference.

[2] = target: Jnk1 (Homo sapiens, UniProt P45983); experiment: Kinase activity assay, Jnk1; details: under the test conditions employed; read-out: activity toward kinase Jnk1, IC50
Sequence of Jnk1 (P45983 whole entry): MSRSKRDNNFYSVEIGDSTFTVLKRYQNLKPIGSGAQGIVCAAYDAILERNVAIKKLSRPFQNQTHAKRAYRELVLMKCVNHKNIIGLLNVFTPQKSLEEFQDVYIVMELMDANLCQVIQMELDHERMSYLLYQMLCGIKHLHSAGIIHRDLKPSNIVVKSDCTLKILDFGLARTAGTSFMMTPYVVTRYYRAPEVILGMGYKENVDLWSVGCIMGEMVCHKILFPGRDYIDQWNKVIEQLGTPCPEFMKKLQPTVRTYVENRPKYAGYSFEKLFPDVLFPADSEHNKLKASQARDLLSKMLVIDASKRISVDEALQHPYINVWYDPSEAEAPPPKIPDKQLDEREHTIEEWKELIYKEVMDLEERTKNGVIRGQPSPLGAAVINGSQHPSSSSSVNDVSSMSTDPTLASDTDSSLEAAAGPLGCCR
Procedure: as §1

[3] = target: Kit (Homo sapiens, UniProt P10721); experiment: Kinase activity assay, Kit; details: under the test conditions employed; read-out: activity toward kinase Kit, IC50
Procedure: as §1

[4] = target: Flt1 (Homo sapiens, UniProt P17948); experiment: Kinase activity assay, Flt1; details: under the test conditions employed; read-out: activity toward kinase Flt1, IC50
Sequence of Flt1 (P17948 27-1338): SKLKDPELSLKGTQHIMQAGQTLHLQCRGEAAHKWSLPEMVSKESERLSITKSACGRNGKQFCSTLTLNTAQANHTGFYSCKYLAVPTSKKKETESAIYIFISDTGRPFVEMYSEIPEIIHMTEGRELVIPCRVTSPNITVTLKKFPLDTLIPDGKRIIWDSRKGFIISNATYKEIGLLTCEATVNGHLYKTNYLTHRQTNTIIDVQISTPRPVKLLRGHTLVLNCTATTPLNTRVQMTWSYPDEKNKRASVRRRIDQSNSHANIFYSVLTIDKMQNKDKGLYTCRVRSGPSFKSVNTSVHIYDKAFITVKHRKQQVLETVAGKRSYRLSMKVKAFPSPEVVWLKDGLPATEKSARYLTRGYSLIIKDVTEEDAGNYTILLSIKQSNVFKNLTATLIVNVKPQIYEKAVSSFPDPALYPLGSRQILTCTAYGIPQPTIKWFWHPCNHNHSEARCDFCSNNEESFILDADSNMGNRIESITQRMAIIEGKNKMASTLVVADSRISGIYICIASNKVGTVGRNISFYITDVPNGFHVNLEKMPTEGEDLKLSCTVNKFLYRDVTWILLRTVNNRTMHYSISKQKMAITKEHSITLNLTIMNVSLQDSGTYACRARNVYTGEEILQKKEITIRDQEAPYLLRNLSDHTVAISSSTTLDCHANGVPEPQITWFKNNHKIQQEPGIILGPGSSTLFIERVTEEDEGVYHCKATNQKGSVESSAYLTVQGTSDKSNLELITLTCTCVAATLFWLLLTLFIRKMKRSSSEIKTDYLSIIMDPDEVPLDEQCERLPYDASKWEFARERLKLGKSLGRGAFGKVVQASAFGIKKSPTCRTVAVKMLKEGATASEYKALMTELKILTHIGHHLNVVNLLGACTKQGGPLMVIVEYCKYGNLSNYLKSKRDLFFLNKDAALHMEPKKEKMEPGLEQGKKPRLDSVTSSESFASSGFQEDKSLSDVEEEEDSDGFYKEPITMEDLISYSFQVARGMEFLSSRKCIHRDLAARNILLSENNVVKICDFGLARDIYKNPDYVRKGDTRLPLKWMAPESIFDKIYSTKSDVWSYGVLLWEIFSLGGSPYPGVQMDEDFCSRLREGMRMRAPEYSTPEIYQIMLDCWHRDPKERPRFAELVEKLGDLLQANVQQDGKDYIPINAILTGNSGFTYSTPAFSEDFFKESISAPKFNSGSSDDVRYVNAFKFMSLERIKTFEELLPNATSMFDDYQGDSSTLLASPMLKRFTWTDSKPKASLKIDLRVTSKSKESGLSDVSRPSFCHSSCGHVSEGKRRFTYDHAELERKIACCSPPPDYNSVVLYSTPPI
Procedure: as §1

[5] = target: Btk (Homo sapiens, UniProt Q06187); experiment: Kinase activity assay, Btk; details: under the test conditions employed; read-out: activity toward kinase Btk, IC50
Procedure: as §1

[6] = target: B-Raf V600E/T529I (Homo sapiens, UniProt P15056, T529I/V600E); experiment: Kinase activity assay, B-Raf V600E/T529I; details: under the test conditions employed; read-out: activity toward kinase B-Raf V600E/T529I, IC50
Sequence of B-Raf V600E/T529I (P15056 whole entry T529I/V600E): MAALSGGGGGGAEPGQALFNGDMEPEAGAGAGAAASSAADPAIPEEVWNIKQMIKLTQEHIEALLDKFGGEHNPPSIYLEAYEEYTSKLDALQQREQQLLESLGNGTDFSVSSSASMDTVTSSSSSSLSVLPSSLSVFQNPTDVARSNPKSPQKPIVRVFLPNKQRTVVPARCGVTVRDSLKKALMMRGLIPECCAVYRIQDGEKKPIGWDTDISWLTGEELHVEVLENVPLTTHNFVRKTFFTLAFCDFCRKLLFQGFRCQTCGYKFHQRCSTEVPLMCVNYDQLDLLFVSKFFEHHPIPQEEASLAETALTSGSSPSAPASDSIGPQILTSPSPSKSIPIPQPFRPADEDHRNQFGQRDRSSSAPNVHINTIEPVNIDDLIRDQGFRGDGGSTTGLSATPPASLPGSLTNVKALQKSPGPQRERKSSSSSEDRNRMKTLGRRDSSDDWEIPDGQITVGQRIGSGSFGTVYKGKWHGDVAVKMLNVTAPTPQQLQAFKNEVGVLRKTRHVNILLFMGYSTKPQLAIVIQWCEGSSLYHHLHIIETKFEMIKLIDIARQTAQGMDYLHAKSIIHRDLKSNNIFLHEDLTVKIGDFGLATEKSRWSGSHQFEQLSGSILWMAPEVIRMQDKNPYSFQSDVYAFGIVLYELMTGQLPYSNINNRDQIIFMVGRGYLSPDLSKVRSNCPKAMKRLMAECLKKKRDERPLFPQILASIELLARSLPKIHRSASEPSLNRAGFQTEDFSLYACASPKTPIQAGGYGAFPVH
Procedure: as §1

[7] = target: Fms (Homo sapiens, UniProt P07333); experiment: Kinase activity assay, Fms; details: under the test conditions employed; read-out: activity toward kinase Fms, IC50
Sequence of Fms (P07333 20-972): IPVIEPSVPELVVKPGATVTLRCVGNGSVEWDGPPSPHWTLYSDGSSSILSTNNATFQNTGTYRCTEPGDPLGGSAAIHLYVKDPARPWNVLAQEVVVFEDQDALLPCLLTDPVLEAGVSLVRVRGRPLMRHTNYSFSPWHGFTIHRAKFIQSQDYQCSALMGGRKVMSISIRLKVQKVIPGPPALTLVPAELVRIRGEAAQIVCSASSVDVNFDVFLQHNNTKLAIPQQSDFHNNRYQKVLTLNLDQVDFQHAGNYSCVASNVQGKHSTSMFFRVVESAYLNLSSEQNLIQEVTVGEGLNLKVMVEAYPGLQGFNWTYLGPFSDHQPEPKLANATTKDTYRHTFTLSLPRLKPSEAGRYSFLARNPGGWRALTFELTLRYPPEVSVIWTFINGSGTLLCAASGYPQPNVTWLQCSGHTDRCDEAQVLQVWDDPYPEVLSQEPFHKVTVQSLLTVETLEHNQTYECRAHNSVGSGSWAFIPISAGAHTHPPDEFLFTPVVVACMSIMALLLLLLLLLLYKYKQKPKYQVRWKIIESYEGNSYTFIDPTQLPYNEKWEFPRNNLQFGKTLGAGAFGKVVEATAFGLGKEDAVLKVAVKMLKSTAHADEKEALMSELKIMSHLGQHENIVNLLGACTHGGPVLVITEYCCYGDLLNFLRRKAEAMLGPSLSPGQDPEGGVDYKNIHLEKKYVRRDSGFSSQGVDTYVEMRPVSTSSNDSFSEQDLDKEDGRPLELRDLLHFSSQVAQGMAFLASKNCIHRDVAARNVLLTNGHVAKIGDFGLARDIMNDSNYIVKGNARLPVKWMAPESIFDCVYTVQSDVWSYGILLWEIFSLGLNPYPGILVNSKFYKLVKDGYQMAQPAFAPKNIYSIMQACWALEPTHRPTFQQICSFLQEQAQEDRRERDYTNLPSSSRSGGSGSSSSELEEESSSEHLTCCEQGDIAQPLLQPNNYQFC
Procedure: as §1

[8] = target: c-Raf-1 (Homo sapiens, UniProt P04049); experiment: Kinase activity assay, c-Raf-1; details: under the test conditions employed; read-out: activity toward kinase c-Raf-1, IC50
Procedure: as §1

[9] = target: B-Raf V600E (Homo sapiens, UniProt P15056, V600E); experiment: Kinase activity assay, B-Raf V600E; details: under the test conditions employed; read-out: activity toward kinase B-Raf V600E, IC50
Sequence of B-Raf V600E (P15056 whole entry V600E): as the sequence (P15056 whole entry T529I/V600E) above, with I529T counted along it
Procedure: as §1

[10] = target: B-Raf (Homo sapiens, UniProt P15056); experiment: Kinase activity assay, B-Raf; details: under the test conditions employed; read-out: activity toward kinase B-Raf, IC50
Sequence of B-Raf (P15056 whole entry): as the sequence (P15056 whole entry T529I/V600E) above, with I529T, E600V counted along it
Procedure: as §1

[11] = target: Src (Homo sapiens, UniProt P12931); experiment: Kinase activity assay, Src; details: under the test conditions employed; read-out: activity toward kinase Src, IC50
Procedure: as §1

Measured: IC50

Sequence of Kdr (P35968 20-1356): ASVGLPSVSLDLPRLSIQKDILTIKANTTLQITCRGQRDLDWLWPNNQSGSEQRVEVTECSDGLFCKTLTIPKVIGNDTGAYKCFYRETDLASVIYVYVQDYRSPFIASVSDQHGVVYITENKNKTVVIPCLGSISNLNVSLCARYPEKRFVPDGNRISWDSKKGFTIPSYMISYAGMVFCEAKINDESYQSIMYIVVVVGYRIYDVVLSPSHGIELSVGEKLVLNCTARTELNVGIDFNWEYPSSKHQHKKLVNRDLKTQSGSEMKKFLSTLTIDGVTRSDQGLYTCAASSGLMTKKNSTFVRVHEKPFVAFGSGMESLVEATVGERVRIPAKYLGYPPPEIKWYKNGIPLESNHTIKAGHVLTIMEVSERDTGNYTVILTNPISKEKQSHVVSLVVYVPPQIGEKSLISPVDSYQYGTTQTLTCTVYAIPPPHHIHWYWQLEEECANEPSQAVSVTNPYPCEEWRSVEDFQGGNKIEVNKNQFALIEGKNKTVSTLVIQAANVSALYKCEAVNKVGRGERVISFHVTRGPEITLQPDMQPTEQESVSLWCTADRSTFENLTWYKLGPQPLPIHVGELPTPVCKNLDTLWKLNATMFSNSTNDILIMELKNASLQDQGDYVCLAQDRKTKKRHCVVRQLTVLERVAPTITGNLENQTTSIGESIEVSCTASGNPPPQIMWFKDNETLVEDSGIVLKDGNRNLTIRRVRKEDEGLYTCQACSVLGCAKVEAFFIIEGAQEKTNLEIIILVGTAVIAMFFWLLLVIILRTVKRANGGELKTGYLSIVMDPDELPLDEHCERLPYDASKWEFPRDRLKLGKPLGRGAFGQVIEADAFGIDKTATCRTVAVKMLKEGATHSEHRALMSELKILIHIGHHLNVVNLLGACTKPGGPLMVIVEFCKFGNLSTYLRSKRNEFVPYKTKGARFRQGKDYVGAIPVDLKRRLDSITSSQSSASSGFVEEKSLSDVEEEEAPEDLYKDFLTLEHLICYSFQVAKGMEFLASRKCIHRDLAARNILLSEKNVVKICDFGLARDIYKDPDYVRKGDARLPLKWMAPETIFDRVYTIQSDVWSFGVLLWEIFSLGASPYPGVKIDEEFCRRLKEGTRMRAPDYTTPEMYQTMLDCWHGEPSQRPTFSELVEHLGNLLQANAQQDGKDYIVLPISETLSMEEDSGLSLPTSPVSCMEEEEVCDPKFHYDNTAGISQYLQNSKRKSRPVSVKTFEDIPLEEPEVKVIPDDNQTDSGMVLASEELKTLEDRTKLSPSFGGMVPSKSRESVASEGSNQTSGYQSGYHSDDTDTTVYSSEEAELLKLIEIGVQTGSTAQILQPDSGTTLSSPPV

c1cc2cc(OC3CCCC3)cnc2[nH]1 [P-0001, 5-cyclopentyloxy-1H-pyrrolo[2,3-b]pyridine]
≤ 10 µM: [1] | [2] | [3]

CS(=O)(=O)c1ccc(Oc2cnc3[nH]cc(C(=O)c4ccc(F)cc4Cl)c3c2)cc1 [P-0038, (2-Chloro-4-fluoro-phenyl)-[5-(4-methanesulfonyl-phenoxy)-1H-pyrrolo[2,3-b]pyridin-3-yl]-methanone]
≤ 10 µM: [1] | [4]

FC(F)Oc1ccc(COc2cnc3[nH]ccc3c2)cc1 [P-0014, 5-(4-(difluoromethoxy)benzyloxy)-1H-pyrrolo[2,3-b]pyridine]
≤ 10 µM: [1]

O=C(O)Cc1cccc(Oc2cnc3[nH]cc(C(=O)c4ccc(F)cc4Cl)c3c2)c1 [P-0039, {3-[3-(2-Chloro-4-fluoro-benzoyl)-1H-pyrrolo[2,3-b]pyridin-5-yloxy]-phenyl}-acetic acid]
≤ 10 µM: [5] | [1] | [3] | [6] | [7]

CCCS(=O)(=O)Nc1ccc(F)c(C(=O)c2c[nH]c3ncc(OCc4ccccc4)cc23)c1F [P-0034, Propane-1-sulfonic acid [3-(5-benzyloxy-1H-pyrrolo[2,3-b]pyridine-3-carbonyl)-2,4-difluoro-phenyl]-amide]
≤ 10 µM: [8] | [1] | [9] | [6] | [10] | [4]

CCCS(=O)(=O)Nc1ccc(F)c(C(=O)c2c[nH]c3ncc(OC4CCCC4)cc23)c1F [P-0033, propane-1-sulfonic acid [3-(5-cyclopentyloxy-1H-pyrrolo[2,3-b]pyridine-3-carbonyl)-2,4-difluoro-phenyl]-amide]
not listed: [5]
≤ 10 µM: all other assays above

c1cc2cc(OCC3CCOCC3)cnc2[nH]1 [P-0019, 5-((tetrahydro-2H-pyran-4-yl)methoxy)-1H-pyrrolo[2,3-b]pyridine]
≤ 10 µM: [9] | [10]

c1ccc(Oc2cnc3[nH]ccc3c2)cc1 [P-0035, 5-phenoxy-1H-pyrrolo[2,3-b]pyridine]
≤ 10 µM: [1] | [3] | [7]

COCCOc1cnc2[nH]ccc2c1 [P-0009, 5-(2-methoxyethoxy)-1H-pyrrolo[2,3-b]pyridine]
≤ 10 µM: [9] | [10]

O=C(c1ccc2cc[nH]c2c1)c1c[nH]c2ncc(OC3CCCC3)cc12 [P-0040, (5-Cyclopentyloxy-1H-pyrrolo[2,3-b]pyridin-3-yl)-(1H-indol-6-yl)-methanone]
≤ 10 µM: [1] | [2] | [3] | [6] | [7] | [4]

c1ccc(COc2cnc3[nH]ccc3c2)cc1 [P-0002, 5-(benzyloxy)-1H-pyrrolo[2,3-b]pyridine]
≤ 10 µM: [1] | [2] | [3]

COc1cccc(COc2cnc3[nH]ccc3c2)c1 [P-0003, 5-(3-methoxybenzyloxy)-1H-pyrrolo[2,3-b]pyridine]
≤ 10 µM: [1]

O=C(c1ccc(Cl)cc1Cl)c1c[nH]c2ncc(Oc3ccccc3)cc12 [P-0036, (2,4-dichloro-phenyl)-(5-phenoxy-1H-pyrrolo[2,3-b]pyridin-3-yl)-methanone]
≤ 10 µM: [5] | [1] | [3] | [7]

CCCS(=O)(=O)Nc1ccc(F)c(C(=O)c2c[nH]c3ncc(OCCN4CCOCC4)cc23)c1F [P-0041, Propane-1-sulfonic acid {2,4-difluoro-3-[5-(2-morpholin-4-yl-ethoxy)-1H-pyrrolo[2,3-b]pyridine-3-carbonyl]-phenyl}-amide]
≤ 10 µM: [1] | [11] | [9] | [10]

c1ccc(CN2CC[C@H](Oc3cnc4[nH]ccc4c3)C2)cc1 [P-0026, 5-((S)-1-benzylpyrrolidin-3-yloxy)-1H-pyrrolo[2,3-b]pyridine]
≤ 10 µM: [10]

COc1ccc(COc2cnc3[nH]ccc3c2)c(OC)c1 [P-0008, 5-(2,4-dimethoxybenzyloxy)-1H-pyrrolo[2,3-b]pyridine]
≤ 10 µM: [6]

Clc1ccc(Cc2c[nH]c3ncc(Oc4ccccc4)cc23)c(Cl)c1 [P-0037, 3-(2,4-dichloro-benzyl)-5-phenoxy-1H-pyrrolo[2,3-b]pyridine]
≤ 10 µM: [1] | [3] | [7]

CCCS(=O)(=O)Nc1ccc(F)c(C(=O)c2c[nH]c3ncc(OC4CCOCC4)cc23)c1F [P-0045, Propane-1-sulfonic acid {2,4-difluoro-3-[5-(tetrahydro-pyran-4-yloxy)-11H-pyrrolo[2,3-b]pyridine-3-carbonyl]-phenyl}-amide]
not listed: [2] | [4] | [5] | [8]
≤ 10 µM: all other assays above

CCCS(=O)(=O)Nc1ccc(F)c(C(=O)c2c[nH]c3ncc(S(=O)(=O)c4ccc(C)cc4)cc23)c1F [P-0047, Propane-1-sulfonic acid {2,4-difluoro-3-[5-(toluene-4-sulfonyl)-1H-pyrrolo[2,3-b]pyridine-3-carbonyl]-phenyl}-amide]
≤ 10 µM: [1] | [9] | [10]
